“Also recorded” adds a separate entry of the source.
Legend:
α1B-ARs = target: T1, α1B-ARs (Homo sapiens, UniProt P35368); assay: Intrinsic activity at α1B-ARs, aequorin calcium mobilization luminescence; type: cell-based; parameters: key to α1B Profile: ANT—antagonist; AGO—agonist; settings: for IC50: antagonist mode, three independent experiments; for α1B Profile: functional profile
T1 sequence (P35368 1-520): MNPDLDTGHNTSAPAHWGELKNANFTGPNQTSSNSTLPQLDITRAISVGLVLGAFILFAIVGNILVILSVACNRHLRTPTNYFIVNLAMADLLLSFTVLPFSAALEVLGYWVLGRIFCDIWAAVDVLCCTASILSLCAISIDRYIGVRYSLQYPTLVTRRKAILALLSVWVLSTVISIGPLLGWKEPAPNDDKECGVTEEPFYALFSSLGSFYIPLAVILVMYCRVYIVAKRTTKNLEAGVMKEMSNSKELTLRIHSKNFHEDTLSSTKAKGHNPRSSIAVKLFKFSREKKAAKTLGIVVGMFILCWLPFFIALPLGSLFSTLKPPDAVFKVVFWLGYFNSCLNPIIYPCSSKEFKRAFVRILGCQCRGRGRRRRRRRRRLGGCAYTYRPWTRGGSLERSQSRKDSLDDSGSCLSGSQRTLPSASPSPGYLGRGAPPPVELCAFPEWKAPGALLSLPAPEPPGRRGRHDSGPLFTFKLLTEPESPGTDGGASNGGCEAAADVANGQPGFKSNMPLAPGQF
Procedure: (§1) The intrinsic activity at α1A-ARs of the selected compounds was assessed by fluorescence detection (Invitrogen, Thermo Fisher Scientific, Carlsbad, CA, USA) of β-lactamase reporter genes using a FRET-enabled substrate. The intrinsic activity at α1B-ARs and α1D-ARs was determined by luminescence detection (PerkinElmer, Zaventem, Belgium) of calcium mobilization using the recombinant-expressed jellyfish photoprotein (Aequorin).
(§2) Intrinsic activity assay to α1B- and α1D-ARs was performed according to the manufacturer of the ready-to-use cells with stable expression of the α1B-adrenoreceptors and α1D-adrenoreceptors, respectively (PerkinElmer, Zaventem, Belgium). For measurement, cells (frozen, ready to use) were thawed and resuspended in 10 mL of assay buffer containing 5 µM coelenterazine h. This cells suspension was put in a 10 mL Falcon tube, fixed onto a rotating heel, and incubated for overnight at rt in the dark (8 rpm; 45° angle). Cells were diluted with Assay Buffer to 5000 cells/20 µL. Agonistic ligands 2 × (50 µL/well), diluted in Assay Buffer, were prepared in ½ white polystyrene area plates, and the cell suspension was dispensed in 50 µL volume on the ligands using the injector. The light emitted was recorded for 20 s. Cells with antagonist were incubated for 15 min at room temperature. Thereafter, 50 µL of agonist (3 × EC80 final concentration) was injected into the mix of cells and antagonist and the light emitted was recorded for 20 s.

α1D-ARs = target: T2, α1D-ARs (Homo sapiens, UniProt P25100); assay: Intrinsic activity at α1D-ARs, aequorin calcium mobilization luminescence; type: cell-based; parameters: key to α1D Profile: ANT—antagonist; AGO—agonist; settings: for IC50: antagonist mode, three independent experiments; for EC50: antagonist, as worded in abstract and text, read-out: EC50(α1D); for α1D Profile: functional profile
T2 sequence (P25100 1-572): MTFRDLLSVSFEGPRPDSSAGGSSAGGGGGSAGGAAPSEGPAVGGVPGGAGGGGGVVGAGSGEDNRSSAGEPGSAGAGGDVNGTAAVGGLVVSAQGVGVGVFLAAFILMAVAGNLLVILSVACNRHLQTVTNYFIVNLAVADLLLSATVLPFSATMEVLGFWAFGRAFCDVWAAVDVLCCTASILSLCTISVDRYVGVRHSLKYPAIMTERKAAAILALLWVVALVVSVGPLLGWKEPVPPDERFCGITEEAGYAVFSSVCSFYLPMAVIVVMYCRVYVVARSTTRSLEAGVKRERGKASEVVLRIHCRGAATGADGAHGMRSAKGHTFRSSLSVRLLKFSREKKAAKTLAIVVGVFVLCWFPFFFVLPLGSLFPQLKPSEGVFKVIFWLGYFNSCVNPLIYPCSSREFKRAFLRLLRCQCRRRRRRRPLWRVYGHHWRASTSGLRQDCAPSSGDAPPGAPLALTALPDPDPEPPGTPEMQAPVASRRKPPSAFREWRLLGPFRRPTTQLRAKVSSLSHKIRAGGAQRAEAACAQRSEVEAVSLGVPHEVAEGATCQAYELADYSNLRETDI
Procedure: as §1, §2

[1] = system: normotensive anaesthetized rats; assay: Effect on blood pressure after single i.v. administration in normotensive anaesthetized rats; type: in vivo, rat; settings: 2 mg/kg i.v.
Procedure: The experiments were performed to our previously reported method.
Identified compounds 9 and 10 with favorable α1B/α1D profile and acceptable metabolic stability were selected for in vivo tests to evaluate their influence on blood pressure. Hypotensive activity was determined after one time i.v. administration to normotensive anaesthetized rats at single doses of 2 mg/kg according to our previously reported method.
The experiments were carried out on male Wistar rats (body weight 200–250 g). The animals were housed in pairs in plastic cages in constant-temperature facilities exposed to a 12:12 h light/dark cycle; water and food were available ad libitum. Experimental groups consisted of 6 animals each. All experiments were conducted in accordance with the NIH Guide for Care and Use of Laboratory Animals and were approved by the Animal Use and Care Committee of the Jagiellonian University (2012, Kraków, Poland).
The normotensive rats were anesthetized with thiopental (70 mg/kg) by i.p. injection. The left carotid artery was cannulated with polyethylene tubing filled with heparin solution in saline to facilitate pressure measurements using PowerLab Apparatus (ADInstruments, Sydney, Australia). Blood pressure was measured: before administration of the compounds—time 0 min (control pressure), and 60 min thereafter. For each compound, studies were performed in the dose of 2 mg/kg b.w. Compounds were dissolved in water and administered intravenously. Initial blood pressure before administration of the tested compounds in all groups was similar.
Statistical calculations were carried out with the GraphPadPrism 6 program (GraphPad Software). Results are given as the arithmetic means with standard deviation (SD). The statistical significance was calculated using a one-way ANOVA and posthoc Bonfferoni Test in comparison to 0.9% NaCl. Differences were considered statistically significant at: * p ≤ 0.05, ** p ≤ 0.01, *** p ≤ 0.001.

Row | SMILES | IC50 (α1B-ARs) [nM] | α1B Profile (α1B-ARs) | IC50 (α1D-ARs) [nM] | EC50 (α1D-ARs) [nM] | α1D Profile (α1D-ARs) | effect on blood pressure, in words (significance vs 0.9% NaCl) [1] | decrease of DBP ([1]; over 60 min)
1 | O=S(=O)(NCC1CCN(CCOc2ccccc2OCC(F)(F)F)CC1)c1cccc(Cl)c1F [Compound 9, 3-Chloro-2-fluoro-N-[(1-{2-[(2,2,2-trifluoroethoxy)phenoxy]ethyl}piperidin-4-yl)methyl]benzenesulfonamide] | 3.9 | ANT | 1.1 | 1.1 | ANT | did not decrease systolic and diastolic blood pressure; also recorded: insignificantly | –
2 | CCOc1ccccc1OCCN[C@H](C)Cc1ccc(OC)c(S(N)(=O)=O)c1 [tamsulosin, reference compound] | 1.3 | ANT | 0.005 | – | ANT | significantly through whole period of observation | 13.3–16.6 mmHg
3 | O=S(=O)(NCC1CCN(CCOc2ccccc2OCC(F)(F)F)CC1)c1cc(Cl)ccc1F [Compound 10, 5-Chloro-2-fluoro-N-[(1-{2-[(2,2,2-trifluoroethoxy)phenoxy]ethyl}piperidin-4-yl)methyl]benzenesulfonamide] | 10.1 | ANT | 2.7 | 1.1 to 2.7 | ANT | statistically significant drop in systolic blood pressure was observed from 30 min after administration | –

Source: publication PMC6225212, “Synthesis and Pharmacological Evaluation of Novel Silodosin-Based Arylsulfonamide Derivatives as α1A/α1D-Adrenergic Receptor Antagonist with Potential Uroselective Profile” (Molecules : A Journal of Synthetic Chemistry and Natural …, 2018)
